Source: ChEMBL document CHEMBL1137935 (Bioorg Med Chem Lett, 2004)

Assays:
[1] = Plasma clearance after IV dosing at 1 mg/kg in rat; assay type: ADME, organism-based; parameters: dose 1 mg/kg, route intravenous; conditions: read-out: Clp
[2] = molecular target: T1, Adenosine receptor A1 (Cavia porcellus) (UniProt P47745); experiment: Binding affinity against […] using [35S]GTP-gamma-S, radioligand in guinea pig.; assay type: functional
T1 sequence (whole entry): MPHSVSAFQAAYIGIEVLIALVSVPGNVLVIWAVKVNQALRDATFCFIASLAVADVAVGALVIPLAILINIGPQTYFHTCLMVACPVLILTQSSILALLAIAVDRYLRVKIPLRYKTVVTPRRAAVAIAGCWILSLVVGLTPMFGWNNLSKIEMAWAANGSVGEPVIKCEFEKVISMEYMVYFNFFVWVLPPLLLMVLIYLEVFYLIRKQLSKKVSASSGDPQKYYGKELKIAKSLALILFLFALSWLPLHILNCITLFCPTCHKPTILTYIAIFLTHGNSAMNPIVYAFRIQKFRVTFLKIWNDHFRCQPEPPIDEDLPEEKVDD

Adenosine receptor A1 = molecular target: T2, Adenosine receptor A1 (Cavia porcellus, UniProt P47745); experiment: Agonistic activity against adenosine A1 receptor in guinea pig isolated hearts; assay type: functional
T2 sequence (P47745 whole entry): T1 sequence (whole entry)

[3] = Cmax after oral administration at a dose of 4 mg/kg in rat; assay type: ADME, organism-based; parameters: dose 4 mg/kg, route oral; conditions: in vivo
[4] = molecular target: T1, Adenosine receptor A1 (Cavia porcellus)
[5] = Elimination half-life after IV dosing at 1 mg/kg in rat; assay type: ADME, organism-based; parameters: dose 1 mg/kg, route intravenous; conditions: in vivo
[6] = Elimination half-life after oral administration at a dose of 4 mg/kg in rat; assay type: ADME, organism-based; parameters: dose 4 mg/kg, route oral; conditions: in vivo
[7] = Bioavailability after oral administration at a dose of 4 mg/kg in rat; assay type: ADME, organism-based; conditions: in vivo
[8] = molecular target: T1, Adenosine receptor A1 (Cavia porcellus); remark: listed apart in the source
[9] = molecular target: T1, Adenosine receptor A1 (Cavia porcellus); experiment: Binding affinity against adenosine A1 receptor using [3H]CPX in guinea pig DDT membrane; 117+/-46
[10] = Bioavailability after oral administration at a dose of 2 mg/kg in rat; assay type: ADME, organism-based; conditions: in vivo
[11] = Plasma clearance after IV dosing at 0.5 mg/kg in rat; assay type: ADME, organism-based; parameters: dose 0.5 mg/kg, route intravenous; conditions: read-out: Clp
[12] = Elimination half-life after IV dosing at 0.5 mg/kg in rat; assay type: ADME, organism-based; parameters: dose 0.5 mg/kg, route intravenous; conditions: in vivo
[13] = Elimination half-life after oral administration at a dose of 2 mg/kg in rat; assay type: ADME, organism-based; parameters: dose 2 mg/kg, route oral; conditions: in vivo
[14] = Cmax after oral administration at a dose of 2 mg/kg in rat; assay type: ADME, organism-based; parameters: dose 2 mg/kg, route oral; conditions: in vivo
[15] = molecular target: T1, Adenosine receptor A1 (Cavia porcellus); experiment: Binding affinity against adenosine A1 receptor using [3H]CCPA in guinea pig DDT membrane; 12.7+/-1.5

Compound | clearance [1] [mL/min/kg] | efficacy relative to CPA [2] [%] | EC50 (Adenosine receptor A1) [nM] | Cmax [3] [ng/mL] | Ki high [4] [nM] | half-life [5] [min] | half-life [6] [min] | bioavailability [7] [%] | Ki low [8] [nM] | Ki low [9] [nM] | bioavailability [10] [%] | clearance [11] [mL/min/kg] | half-life [12] [min] | half-life [13] [min] | Cmax [14] [ng/mL] | Ki high [15] [nM]
OC1[C@@H](O)C(n2cnc3c(NC4CCOC4)ncnc32)O[C@@H]1CSc1ccccc1F (single isomer, unassigned) | 69.4 | 72 | 1260 | 107 | 79 | 24 | 78 | 12.3 | 506 |  |  |  |  |  |  | 
OC1[C@@H](O)C(n2cnc3c(NC4CCOC4)ncnc32)O[C@@H]1COc1ccccc1F (single isomer, unassigned) |  | 78 | 200 |  |  |  |  |  |  | 117 | 81 | 202 | 18 | 96 | 60.3 | 12.7
